Read-outs that look alike come from different tables or passages of the source.

In one experiment the target is α4β7 integrin (Homo sapiens (Human), UniProt P13612+P26010). In words: Integrin Adhesion Assay: Protocol 4 (MAdCAM-coated plate, RPMI-8866 cells with stable LOF mutation of the ITGB1 gene). Type of experiment: cell-based. Summed up: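 RPMI-8866 cells with CRISPR/Cas9 knockout of ITGB1 (2×10^6/mL) were added to MAdCAM-coated wells with compound (1% DMSO) in HEPES/NaCl buffer with 1 mM MnCl2, 0.1 mM CaCl2 and 1% BSA, then incubated 1 h at 37 °C. After four washes, adherent cells were quantified by CellTiter-Glo luminescence. Percent inhibition versus DMSO and control compound was fitted to 4-parameter curves.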

Another experiment has as its target α4β1 integrin (Homo sapiens (Human), UniProt P05556+P13612). Nature of the experiment: Integrin Adhesion Assay: Protocol 5 (VCAM-coated plate, RPMI-8866 cells with stable LOF mutation of the ITGB7 gene). Type of experiment: cell-based. A digest of the protocol: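 RPMI-8866 B cells with CRISPR/Cas9 ITGB7 knockout (clonal, verified by flow cytometry) adhered to VCAM-coated wells for 1 h at 37° C in HEPES/NaCl buffer with 1 mM MnCl2, 0.1 mM CaCl2, 1% BSA, 1% DMSO. Bound cells quantified by CellTiter-Glo luminescence after washing; % inhibition versus DMSO and control, 4-parameter fit.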

Where [1] appears, read: RPMI-8866 cells with stable LOF mutation of the ITGB1 gene, read-out: Mean IC50 α4β7 KO^a.
The mark [2] stands for this setting: RPMI-8866 cells with stable LOF mutation of the ITGB7 gene, read-out: Mean IC50 α4β1 KO^b.
[3] abbreviates: Protocol 4, RPMI-8866 cells with LOF mutation of ITGB1, MAdCAM, read-out: Mean IC50 α4β7 KO.
[4] abbreviates: Protocol 5, RPMI-8866 cells with LOF mutation of ITGB7, VCAM, read-out: Mean IC50 α4β1 KO.

Chain of α4β1 integrin (P13612 34-1032): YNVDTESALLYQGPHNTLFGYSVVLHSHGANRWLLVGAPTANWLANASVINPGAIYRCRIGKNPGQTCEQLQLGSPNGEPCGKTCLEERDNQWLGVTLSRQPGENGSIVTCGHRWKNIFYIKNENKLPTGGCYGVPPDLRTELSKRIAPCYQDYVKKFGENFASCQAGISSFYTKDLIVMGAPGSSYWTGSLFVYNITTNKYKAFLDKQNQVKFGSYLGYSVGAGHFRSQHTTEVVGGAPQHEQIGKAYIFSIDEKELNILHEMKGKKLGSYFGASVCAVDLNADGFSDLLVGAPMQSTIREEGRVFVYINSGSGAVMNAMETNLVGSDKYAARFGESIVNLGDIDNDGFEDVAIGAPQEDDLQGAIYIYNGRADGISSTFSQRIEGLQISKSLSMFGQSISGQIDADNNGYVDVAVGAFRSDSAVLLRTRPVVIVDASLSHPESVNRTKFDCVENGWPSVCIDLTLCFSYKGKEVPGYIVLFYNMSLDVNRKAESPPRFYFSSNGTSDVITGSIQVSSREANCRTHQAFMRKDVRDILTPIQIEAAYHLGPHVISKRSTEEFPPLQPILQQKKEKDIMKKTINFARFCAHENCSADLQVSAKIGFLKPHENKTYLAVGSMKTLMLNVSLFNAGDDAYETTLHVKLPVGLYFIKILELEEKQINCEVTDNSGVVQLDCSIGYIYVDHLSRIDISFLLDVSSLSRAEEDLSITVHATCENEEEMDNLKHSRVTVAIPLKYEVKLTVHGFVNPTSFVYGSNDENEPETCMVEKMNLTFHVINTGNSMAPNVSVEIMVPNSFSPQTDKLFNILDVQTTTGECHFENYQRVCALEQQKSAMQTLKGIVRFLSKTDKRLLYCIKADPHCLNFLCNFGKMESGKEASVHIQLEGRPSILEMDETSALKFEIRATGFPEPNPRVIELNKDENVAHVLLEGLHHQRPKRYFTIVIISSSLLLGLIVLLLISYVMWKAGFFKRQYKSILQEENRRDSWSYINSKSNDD
Chain of α4β1 integrin (P05556 21-798): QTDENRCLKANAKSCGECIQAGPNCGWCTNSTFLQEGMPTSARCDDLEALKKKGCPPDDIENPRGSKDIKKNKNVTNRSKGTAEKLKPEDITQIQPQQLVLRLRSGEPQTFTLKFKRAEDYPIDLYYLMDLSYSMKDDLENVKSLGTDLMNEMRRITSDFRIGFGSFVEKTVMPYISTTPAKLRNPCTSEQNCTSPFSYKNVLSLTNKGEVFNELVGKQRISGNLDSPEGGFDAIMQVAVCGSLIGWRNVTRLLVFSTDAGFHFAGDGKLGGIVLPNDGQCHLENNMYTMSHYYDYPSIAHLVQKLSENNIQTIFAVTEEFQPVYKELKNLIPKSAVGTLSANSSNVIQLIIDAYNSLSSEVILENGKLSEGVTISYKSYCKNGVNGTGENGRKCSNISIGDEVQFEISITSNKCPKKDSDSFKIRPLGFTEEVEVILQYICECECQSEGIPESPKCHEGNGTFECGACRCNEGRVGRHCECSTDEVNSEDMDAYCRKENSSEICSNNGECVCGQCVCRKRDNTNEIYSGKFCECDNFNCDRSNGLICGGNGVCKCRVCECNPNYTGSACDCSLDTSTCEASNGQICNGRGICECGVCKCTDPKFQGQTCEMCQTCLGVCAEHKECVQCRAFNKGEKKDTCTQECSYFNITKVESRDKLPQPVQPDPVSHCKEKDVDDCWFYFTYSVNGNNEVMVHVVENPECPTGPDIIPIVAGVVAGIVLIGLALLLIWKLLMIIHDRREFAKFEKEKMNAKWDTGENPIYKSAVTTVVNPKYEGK
Chain of α4β7 integrin (P13612 34-1032): as the sequence (P13612 34-1032) above
Chain of α4β7 integrin (P26010 20-798): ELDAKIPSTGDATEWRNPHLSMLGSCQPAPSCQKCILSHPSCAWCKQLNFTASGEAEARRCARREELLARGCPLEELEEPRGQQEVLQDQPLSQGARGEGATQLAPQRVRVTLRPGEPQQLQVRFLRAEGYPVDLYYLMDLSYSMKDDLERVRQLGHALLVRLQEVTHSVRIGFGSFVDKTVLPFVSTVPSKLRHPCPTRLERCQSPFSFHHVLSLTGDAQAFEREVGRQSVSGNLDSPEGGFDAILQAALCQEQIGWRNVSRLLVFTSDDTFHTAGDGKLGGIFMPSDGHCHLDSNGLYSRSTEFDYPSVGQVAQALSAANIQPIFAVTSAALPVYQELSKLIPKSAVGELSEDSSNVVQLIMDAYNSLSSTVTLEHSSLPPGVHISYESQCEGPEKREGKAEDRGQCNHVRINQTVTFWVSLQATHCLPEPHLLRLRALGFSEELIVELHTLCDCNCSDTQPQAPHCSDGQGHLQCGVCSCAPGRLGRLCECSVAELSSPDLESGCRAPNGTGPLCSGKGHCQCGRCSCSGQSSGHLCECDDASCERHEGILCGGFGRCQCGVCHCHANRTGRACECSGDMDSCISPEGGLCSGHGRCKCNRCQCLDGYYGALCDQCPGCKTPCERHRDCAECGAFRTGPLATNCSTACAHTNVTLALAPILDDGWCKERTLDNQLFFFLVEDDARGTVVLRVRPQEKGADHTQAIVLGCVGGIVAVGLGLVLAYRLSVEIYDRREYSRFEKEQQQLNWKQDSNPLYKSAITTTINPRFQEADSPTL

In the case of `CC(C)(C)C1CCN(Cc2cccc3c(-c4cccc5c(C[C@H](NC(=O)C6(C(F)(F)F)CCN(CC(F)(F)F)CC6)C(=O)O)cccc45)nccc23)CC1` [Compound 659], the IC50 at α4β7 integrin (setting [1]) is 10 to 100 nM; on α4β1 integrin (setting [2]) it was over 1000 nM.

Turning to `CN(C)CCc1ccc2c(c1)c(C(F)(F)F)c(-c1cccc3c(C[C@H](NC(=O)c4c(F)cccc4CN4CCC(F)(F)CC4)C(=O)O)cccc13)c(=O)n2C` [Compound 711], the IC50 on α4β7 integrin (setting [3]) is under 10 nM; at α4β1 integrin (setting [4]), 100 to 1000 nM.

Take `O=C(O)[C@H](Cc1cccc2c(-c3ncc(C(=O)N4CCN(C5CC5)CC4)c4ccccc34)cccc12)NC(=O)C1(C(F)(F)F)CCN(CC(F)(F)F)CC1` [Compound 762]: the figures for the IC50 on α4β7 integrin (setting [3]) and at α4β1 integrin (setting [4]) were 10 to 100 nM and over 1000 nM, respectively.

Turning to `COc1cc(CCN2CCCCC2)ccc1-c1cccc2c(C[C@H](NC(=O)C3(C(F)(F)F)CCN(CC(F)(F)F)CC3)C(=O)O)cccc12` [Compound 963], the IC50 on α4β7 integrin (setting [3]) is under 10 nM; at α4β1 integrin (setting [4]) it was 100 to 1000 nM.

Consider `Cc1cccc(F)c1C(=O)N[C@@H](Cc1cccc2c(-c3nccc4c(CN5CCCC5)cccc34)cccc12)C(=O)O` [Compound 619], for which the values for the IC50 at α4β7 integrin (setting [1]) and at α4β1 integrin (setting [2]) were under 10 nM and over 1000 nM, respectively.

Take `O=C(O)[C@H](Cc1cccc2c(-c3ncc(CN4CCCCC4)cc3C3CC3)cccc12)NC(=O)C1(C(F)(F)F)CCN(CC(F)(F)F)CC1` [Compound 882]: the results for the IC50 on α4β7 integrin (setting [3]) and on α4β1 integrin (setting [4]) were under 10 nM and 100 to 1000 nM, respectively.

In the case of `O=C(O)[C@H](Cc1cccc2c(-c3ccc(CN4CCCC(F)C4)c4ccncc34)cccc12)NC(=O)C1(C(F)(F)F)CCN(CC(F)(F)F)CC1` (some centres unmarked) [Compound 989], the IC50 at α4β7 integrin (setting [3]) is 10 to 100 nM; on α4β1 integrin (setting [4]), over 1000 nM.

For the molecule `O=C(O)[C@H](Cc1cccc2c(-c3nccc4cccc(CN5CCCCC5)c34)cccc12)NC(=O)C1(C(F)(F)F)CCN(CC(F)(F)F)CC1` [Compound 864], the IC50 at α4β7 integrin (setting [3]) is under 10 nM; at α4β1 integrin (setting [4]), over 1000 nM.

As for `O=C(O)[C@H](Cc1cccc2c(-c3nccc4c(CN5CCC(F)CC5)cccc34)cccc12)NC(=O)C1(C(F)(F)F)CCN(CC(F)(F)F)CC1` [Compound 560], the IC50 at α4β7 integrin (setting [1]) was under 10 nM; on α4β1 integrin (setting [2]) it was over 1000 nM.

Turning to `Cc1c(CCN2CCCCC2)ccnc1-c1cccc2c(C[C@H](NC(=O)C3(C(F)(F)F)CCN(CC(F)(F)F)CC3)C(=O)O)cccc12` [Compound 717], the IC50 at α4β7 integrin (setting [3]) is under 10 nM; on α4β1 integrin (setting [4]), 100 to 1000 nM.

For `Cn1c(=O)c(-c2cccc3c(C[C@H](NC(=O)C4(C(F)(F)F)CCN(CC(F)(F)F)CC4)C(=O)O)cccc23)c(C(F)(F)F)c2cc(CN3CCC(F)CC3)ccc21` [Compound 833], the half-maximal inhibitory concentration (IC50) on α4β7 integrin (setting [3]) was under 10 nM; on α4β1 integrin (setting [4]), 100 to 1000 nM.

As for `CCOCCN1CCC(C(=O)N[C@@H](Cc2cccc3c(-c4c(C(F)(F)F)c5ccccc5n(C)c4=O)cccc23)C(=O)O)(C(F)(F)F)CC1` [Compound 503], the IC50 at α4β7 integrin (setting [1]) is 10 to 100 nM; on α4β1 integrin (setting [2]), 100 to 1000 nM.

`COc1cc2c(c(C)c1-c1cccc3c(C[C@H](NC(=O)C4(C(F)(F)F)CCN(CC(F)(F)F)CC4)C(=O)O)cccc13)CN(C)CC2` [Compound 724]: the IC50 was under 10 nM on α4β7 integrin (setting [3]) and 10 to 100 nM at α4β1 integrin (setting [4]).

For the molecule `O=C(O)[C@H](Cc1cccc2c(-c3cccc4c(CN5CCCCC5)cncc34)cccc12)NC(=O)C1(C(F)(F)F)CCN(CC(F)(F)F)CC1` [Compound 803], the IC50 on α4β7 integrin (setting [3]) was 10 to 100 nM; at α4β1 integrin (setting [4]) it was over 1000 nM.

As to `COc1ccc(CN2CCC(F)(F)CC2)c(OC)c1-c1cccc2c(C[C@H](NC(=O)C3(C(F)(F)F)CCN([C@H]4COC[C@H]4F)CC3)C(=O)O)cccc12` [Compound 573], the half-inhibitory concentration (IC50) at α4β7 integrin (setting [1]) is under 10 nM; on α4β1 integrin (setting [2]), over 1000 nM.

As for `COc1ccc(CN2CCCCC2)c(C(F)(F)F)c1-c1cccc2c(C[C@H](NC(=O)c3c(C)cccc3F)C(=O)O)cccc12` [Compound 562], the figures for the IC50 at α4β7 integrin (setting [1]) and at α4β1 integrin (setting [2]) were under 10 nM and 100 to 1000 nM, respectively.

Take `COc1cccc(CCN2CCCC(C)(C)C2)c1-c1cccc2c(C[C@H](NC(=O)C3(C(F)(F)F)CCN(CC(F)(F)F)CC3)C(=O)O)cccc12` [Compound 961]: the results for the IC50 on α4β7 integrin (setting [3]) and on α4β1 integrin (setting [4]) were under 10 nM and 100 to 1000 nM, respectively.

In the case of `COc1ccc(CN(C)C)c(OC)c1-c1cccc2c(C[C@H](NC(=O)c3c(C)cccc3Cl)C(=O)O)cccc12` [Compound 613], the IC50 at α4β7 integrin (setting [1]) is under 10 nM; at α4β1 integrin (setting [2]), 100 to 1000 nM.

Take `COc1ccc(CCN2CCCCC2)cc1-c1cccc2c(C[C@H](NC(=O)c3c(C)cccc3F)C(=O)O)cccc12` [Compound 1001]: the half-inhibitory concentration (IC50) at α4β7 integrin (setting [3]) was 10 to 100 nM; at α4β1 integrin (setting [4]), over 1000 nM.

On to `O=C(O)[C@H](Cc1cccc2c(-c3ncc(CN4CCCCC4)c4ccccc34)cccc12)NC(=O)C1(C(F)(F)F)CCN(CC(F)(F)F)CC1` [Compound 787], for which the half-maximal inhibitory concentration (IC50) was under 10 nM at α4β7 integrin (setting [3]) and over 1000 nM on α4β1 integrin (setting [4]).

With `COc1cc2c(c(C(F)(F)F)c1-c1cccc3c(C[C@H](NC(=O)C4(C(F)(F)F)CCN(CC(F)(F)F)CC4)C(=O)O)cccc13)CCN(C)C2` [Compound 726], the IC50 is under 10 nM on α4β7 integrin (setting [3]) and 10 to 100 nM on α4β1 integrin (setting [4]).

For the molecule `COc1ccc(CN(C)C)c(OC)c1-c1cccc2c(C[C@H](NC(=O)c3c(C)cccc3CN3CCC(F)(F)CC3)C(=O)O)cccc12` [Compound 588], the values for the IC50 on α4β7 integrin (setting [1]) and on α4β1 integrin (setting [2]) were 100 to 1000 nM and over 1000 nM, respectively.

As to `COc1ccc(CN(C)C)c(OC)c1-c1cccc2c(C[C@H](NC(=O)c3c(F)cccc3C(F)(F)F)C(=O)O)cccc12` [Compound 479], the IC50 at α4β7 integrin (setting [1]) was under 10 nM; at α4β1 integrin (setting [2]) it was 100 to 1000 nM.

Turning to `COc1ccc(CCN2CCC(F)CC2)c(OC)c1-c1cccc2c(C[C@H](NC(=O)C3(C(F)(F)F)CCN(CC(F)(F)F)CC3)C(=O)O)cccc12` [Compound 966], the IC50 at α4β7 integrin (setting [3]) was under 10 nM; at α4β1 integrin (setting [4]), 100 to 1000 nM.

For the molecule `Cn1c(=O)c(-c2cccc3c(C[C@H](NC(=O)C4(C(F)(F)F)CCN(CC(F)(F)F)CC4)C(=O)O)cccc23)c(C(F)(F)F)c2cc(CN3CCC(F)(F)CC3)ccc21` [Compound 835], the IC50 on α4β7 integrin (setting [3]) was 10 to 100 nM; at α4β1 integrin (setting [4]), 100 to 1000 nM.

Consider `O=C(O)[C@H](Cc1cccc2c(-c3nccc4c(CN5CCC(F)(F)C5)cccc34)cccc12)NC(=O)C1(C(F)(F)F)CCN(CC(F)(F)F)CC1` [Compound 594], for which the values for the IC50 at α4β7 integrin (setting [1]) and at α4β1 integrin (setting [2]) were 10 to 100 nM and over 1000 nM, respectively.

Take `COc1ccc(CN(C)C)c(OC(F)(F)F)c1-c1cccc2c(C[C@H](NC(=O)c3c(C)cccc3F)C(=O)O)cccc12` [Compound 703]: the results for the IC50 on α4β7 integrin (setting [3]) and on α4β1 integrin (setting [4]) were under 10 nM and 100 to 1000 nM, respectively.

For `COc1ccc(CN2CCC(F)(F)CC2)c(OC)c1-c1cccc2c(C[C@H](NC(=O)C3(C(F)(F)F)CCN(CC(F)(F)F)CC3)C(=O)O)cccc12` [Compound 780], the IC50 was 10 to 100 nM on α4β7 integrin (setting [3]) and over 1000 nM on α4β1 integrin (setting [4]).

For `O=C(O)[C@H](Cc1cccc2c(-c3nccc4ccc(CN5CCCCC5)cc34)cccc12)NC(=O)C1(C(F)(F)F)CCN(CC(F)(F)F)CC1` [Compound 786], the IC50 on α4β7 integrin (setting [3]) was 10 to 100 nM; at α4β1 integrin (setting [4]), over 1000 nM.

With `COc1ccc(CN2CCC(F)(F)CC2)c(OC)c1-c1cccc2c(C[C@H](NC(=O)C3(C(F)(F)F)CCN(C4COC4)CC3)C(=O)O)cccc12` [Compound 611], the IC50 at α4β7 integrin (setting [1]) is under 10 nM; at α4β1 integrin (setting [2]), over 1000 nM.

`COc1ccc(CN2CCC[C@@H](F)C2)c(OC)c1-c1cccc2c(C[C@H](NC(=O)c3c(C)cccc3F)C(=O)O)cccc12` [Compound 672]: the IC50 was under 10 nM at α4β7 integrin (setting [1]) and 100 to 1000 nM at α4β1 integrin (setting [2]).

For the origin of these results see patent US20250313535A1, “ALPHA 4 BETA 7 INTEGRIN MODULATORS AND USES THEREOF” (DICE MOLECULES SV, INC., priority 2022, published 2025).
